Target: T1, Angiotensin-converting enzyme (Oryctolagus cuniculus, UniProt P12822)
T1 sequence (P12822 whole entry): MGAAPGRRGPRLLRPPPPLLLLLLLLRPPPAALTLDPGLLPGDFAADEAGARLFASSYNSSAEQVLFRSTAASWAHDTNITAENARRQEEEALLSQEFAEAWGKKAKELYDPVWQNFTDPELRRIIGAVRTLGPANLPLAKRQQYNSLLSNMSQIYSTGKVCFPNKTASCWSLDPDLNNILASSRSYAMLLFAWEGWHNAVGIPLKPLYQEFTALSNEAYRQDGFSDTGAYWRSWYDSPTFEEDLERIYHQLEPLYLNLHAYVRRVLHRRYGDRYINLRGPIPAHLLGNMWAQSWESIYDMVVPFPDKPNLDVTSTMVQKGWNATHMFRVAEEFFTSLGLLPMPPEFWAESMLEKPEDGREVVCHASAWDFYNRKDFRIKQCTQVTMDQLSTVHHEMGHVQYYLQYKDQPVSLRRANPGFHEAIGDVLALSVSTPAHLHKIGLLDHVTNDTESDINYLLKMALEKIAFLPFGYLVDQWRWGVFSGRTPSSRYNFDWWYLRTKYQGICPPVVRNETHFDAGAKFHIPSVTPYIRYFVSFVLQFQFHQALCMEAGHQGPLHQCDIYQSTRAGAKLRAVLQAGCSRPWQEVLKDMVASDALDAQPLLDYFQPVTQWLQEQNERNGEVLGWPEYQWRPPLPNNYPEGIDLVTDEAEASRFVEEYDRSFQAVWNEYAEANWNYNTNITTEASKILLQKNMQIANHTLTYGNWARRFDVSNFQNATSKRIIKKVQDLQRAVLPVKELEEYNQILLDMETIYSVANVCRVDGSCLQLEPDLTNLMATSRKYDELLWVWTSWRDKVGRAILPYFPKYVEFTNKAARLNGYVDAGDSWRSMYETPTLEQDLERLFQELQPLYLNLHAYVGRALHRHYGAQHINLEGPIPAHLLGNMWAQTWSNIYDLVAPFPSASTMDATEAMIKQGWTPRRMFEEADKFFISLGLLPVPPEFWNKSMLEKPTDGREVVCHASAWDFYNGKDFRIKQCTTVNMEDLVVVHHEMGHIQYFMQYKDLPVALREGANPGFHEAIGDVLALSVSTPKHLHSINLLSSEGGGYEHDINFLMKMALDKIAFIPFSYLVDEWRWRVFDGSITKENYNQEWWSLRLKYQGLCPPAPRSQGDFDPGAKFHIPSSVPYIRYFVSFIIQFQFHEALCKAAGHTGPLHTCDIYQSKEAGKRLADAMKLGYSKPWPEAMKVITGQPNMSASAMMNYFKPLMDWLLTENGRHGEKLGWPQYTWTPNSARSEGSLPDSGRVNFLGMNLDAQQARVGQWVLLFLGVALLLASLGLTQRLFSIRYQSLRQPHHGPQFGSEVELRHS
Assay: In vitro inhibitory activity was evaluated against angiotensin converting enzyme from rabbit in bovine buffered base

Row | IC50 [nM] | SMILES
1 | 0.29 | O=C(O)[C@@H]1CCCN1C(=O)[C@@H](CS)C(F)(F)F
2 | 480 | O=C(O)[C@@H]1CCCN1C(=O)[C@H](CS)C(F)(F)F

Reference: ChEMBL document CHEMBL1125956, “A new potent inhibitor for angiotensin converting enzyme: (R,S)-captopril-F3” (Bioorg Med Chem Lett, 1991)
